Assays:
HMG-CoA Reductase (HMGR) = biological target: T1, HMG-CoA Reductase (HMGR) (Homo sapiens, UniProt P04035); test: HMG-CoA reductase inhibition assay (Example 30); format: biochemical; settings: read-out: % Inhibition over control
T1 sequence (P04035 426-888 limits assumed): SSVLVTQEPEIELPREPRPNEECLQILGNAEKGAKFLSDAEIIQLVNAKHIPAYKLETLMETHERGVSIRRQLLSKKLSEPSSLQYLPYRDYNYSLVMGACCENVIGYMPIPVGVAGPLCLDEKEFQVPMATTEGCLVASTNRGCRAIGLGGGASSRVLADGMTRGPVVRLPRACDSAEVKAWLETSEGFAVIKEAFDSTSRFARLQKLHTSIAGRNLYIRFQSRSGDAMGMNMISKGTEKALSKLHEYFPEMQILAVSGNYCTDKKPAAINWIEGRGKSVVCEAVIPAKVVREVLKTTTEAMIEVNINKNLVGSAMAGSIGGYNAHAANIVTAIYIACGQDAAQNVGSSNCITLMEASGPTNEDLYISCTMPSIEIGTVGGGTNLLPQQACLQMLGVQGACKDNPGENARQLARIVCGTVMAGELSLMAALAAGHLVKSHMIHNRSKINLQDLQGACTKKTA
Procedure: Amla seed extract prepared as per example 1 and water extract of dried Amla seed prepared as per example 8 was weighed separately and each extract was dissolved in dimethyl sulfoxide (DMSO) to prepare a stock of 400 mg/ml stock solution of each. From this stock, different dose levels were prepared in DMSO for further experimental use. […] The optical density (OD) values were recorded using spectrophotometer at regular time intervals. […] Based on the specific activity values from all the test doses, EC50 (Effective Concentration 50) were determined by plotting a curve between Specific activity Vs. Test concentration. EC50 values (μg/ml) and IC50 (μM) were determined by interpolation method by using Graph pad prism, version 5.01.

[1] = tested on: streptozotocin induced diabetic rats; test: Antidiabetic activity in streptozotocin induced diabetic rats (Example 22); format: in vivo, rat
Procedure: The amla seed extract as prepared in example 1 was evaluated for antidiabetic activity in experimental rats. Male/Female albino wistar rats were maintained as per standard guidelines: housed in polypropylene cages, under 12 hour artificial light and dark cycles at a temperature of 24±2° C., given a standard pellet diet and water ad libitum. The animals were acclimatized to the animal house conditions for a week before beginning the experiment. Diabetes was induced by injecting streptozotocin 35 mg/kg dissolved in 0.1M citrate buffer of pH 4.5, intra-peritoneally. […] Animals with FBG above 200 mg/dl were considered diabetic. The diabetic animals were randomly divided into three groups of six animals each. […] The plasma CRP level was measured initially and then at Day 28 of the study.

| SMILES | inhibition at 2.5 µM (HMG-CoA Reductase (HMGR); test concentration 2.5 μM) [%] | inhibition at 5 µM (HMG-CoA Reductase (HMGR); test concentration 5 μM) [%] | inhibition at 10 µM (HMG-CoA Reductase (HMGR); test concentration 10 μM) [%] | inhibition at 20 µM (HMG-CoA Reductase (HMGR); test concentration 20 μM) [%] | inhibition at 40 µM (HMG-CoA Reductase (HMGR); test concentration 40 μM) [%] | inhibition at 60 µM (HMG-CoA Reductase (HMGR); test concentration 60 μM) [%] | inhibition at 80 µM (HMG-CoA Reductase (HMGR); test concentration 80 μM) [%] | inhibition at 100 µM (HMG-CoA Reductase (HMGR); test concentration 100 μM) [%] | Fasting Blood Glucose level Day 7 ([1]; 0.5 mg/kg for 28 days) [mg/dL] | Fasting Blood Glucose level Day 14 ([1]; 0.5 mg/kg for 28 days) [mg/dL] | Fasting Blood Glucose level Day 21 ([1]; 0.5 mg/kg for 28 days) [mg/dL] | Fasting Blood Glucose level Day 28 ([1]; 0.5 mg/kg for 28 days) [mg/dL] | effect on blood glucose level ([1]; 0.5 mg/kg for 28 days) | Fasting Blood Glucose level Day 1 (Initial) ([1]; 0.5 mg/kg for 28 days group) [mg/dL] | effect on CRP level ([1]; 0.5 mg/kg for 28 days, compared to initial CRP value) | CRP level Day 28 (Final) ([1]; plasma, 0.5 mg/kg for 28 days) [mg/L] | CRP level Day 1 (Initial) ([1]; plasma, 0.5 mg/kg for 28 days group) [mg/L] |
| --- | --- | --- | --- | --- | --- | --- | --- | --- | --- | --- | --- | --- | --- | --- | --- | --- | --- |
| CC[C@H](C)C(=O)O[C@H]1C[C@@H](C)C=C2C=C[C@H](C)[C@H](CC[C@@H]3C[C@@H](O)CC(=O)O3)[C@H]21 [LOVASTATIN, lovastatin] | 37 | 37.6 | 37.7 | 41.5 | 55.6 | 76.5 | 86.6 | 98.5 | – | – | – | – | – | – | – | – | – |
| COc1ccc(Cl)cc1C(=O)NCCc1ccc(S(=O)(=O)NC(=O)NC2CCCCC2)cc1 [Glibenclamide] | – | – | – | – | – | – | – | – | 211 | 179 | 136 | 109 | decreased the blood glucose level to nearly normal | 406 | failed to decrease the CRP level significantly | 9.6 | 10.8 |
